Read-outs that look alike come from different tables or passages of the source.
How the values were obtained:
Type in all cases: cell-based
[1] = system: A2780 ovarian cancer cell line; test: Cell growth inhibition, A2780 ovarian cancer cell line
Method: (§1) The compounds are tested on 24 -well trays. Cells growing in a flask are harvested just before they become confluent, counted using a haemocytometer and diluted down with media to a concentration of 1×10^4 cells per ml. The cells are then seeded in the 24 -well trays at a density of […] (i.e. 1 ml of the diluted cell suspension is added to each well). The cells are then left to plate down and grow for 72 hours before adding the compounds of the invention.
(§2) The Ru complexes are weighed out and made up to a concentration of is 1 mg/ml with deionised water then sonicated, until they go into solution. The appropriate volume of the Ru solution is added to 5 ml of media to make it up to a concentration of 100 μM for each drug. This 100 μM solution is then serially diluted to make up the 10 μM, 1 μM and 0.1 μM solutions.
(§3) The media is removed from the cells and replaced with 1 ml of the media dosed with drug. Each concentration is done in duplicate. A set of control wells are left on each plate, containing media without drug.
(§4) The cells are left exposed to the drugs for 24 hours and then washed with phosphate buffered saline before fresh media is added.
(§5) They are allowed to grow on for a further 3 days before being counted using a Coulter counter.
(§6) • Media is removed and 1 ml of PBS is added to the cells. • 250 μl of trypsin is added and cells left in incubator for a few minutes to allow the monolayers to detach. • Once trypsinised, 250 μl of media is added to each well to neutralise the trypsin. 200 μl of this suspension is added to 10 ml of NaCl for counting. 2. Results
Using the above protocol, a number of compounds of the invention were tested on A2780 ovarian cancer cell line.

[2] = system: A2780 cis, variant of A2780 showing resistance to cis-platin; test: Cell growth inhibition, A2780 cis (cis-platin resistant variant); conditions: 24 hours exposure
Method: as §1, §2, §3, §4, §5, §6
(§7) The experiments were repeated to investigate the effect of the compounds of the invention on drag-resistant variants of the A2780 cell line.

[3] = system: A2780 AD, variant of A2780 showing resistance to adriomycin; test: Cell growth inhibition, A2780 AD (adriomycin resistant variant); conditions: multidrug resistant, over expresses p glycoprotein, 24 hours exposure
Method: as §1, §2, §3, §4, §5, §6, §7

[4] = A2780, repeated experiments with drug-resistant variants, 24 hours exposure, read-out: IC50 A2780
[5] = A2780 ovarian cancer cell line, 24 hours drug exposure, counted after a further 3 days, first experiment, read-out: IC50

Row | Compound | IC50 [1, 4] [µM] | IC50 [1, 5] [µM] | IC50 [2] [µM] | IC50 [3] [µM]
1 | C1=CCC2=C(C1)Cc1ccccc1C2.F[P-](F)(F)(F)(F)F.NCCN.[Cl][Ru+] [Example 1, [(η^6-C14H14)RuCl(en)]^+PF6] | 0.5 | 0.5 | 1 | 328
2 | C1=CCC2=C(C1)Cc1ccccc1C2.[Cl][Ru][Cl] [Example 2, [(η^6-C14H14)RuCl2(DMSO)]] | 94 | 94 | 493 | 4
3 | C1=CCC2=C(C1)Cc1ccccc1C2.CC#N.CC#N.F[P-](F)(F)(F)(F)F.[Cl][Ru+] [Example 3, [(η^6-C14H14)RuCl(CH3CN)2]^+PF6^−] | 116 | 177 | 2 | 2
4 | F[P-](F)(F)(F)(F)F.NCCN.[Cl][Ru+].c1ccc2c(c1)Cc1ccccc1C2 [Example 4, [η^6-C14H12)RuCl(en)]^+PF6−] | 2 | 0.3 | 16 | 104
5 | [Cl][Ru][Cl].c1ccc2c(c1)Cc1ccccc1C2 [Example 5, [(η^6-C14H12)RuCl2(DMSO)]] | 126 | 68 | 2 | 5
6 | CC#N.CC#N.F[P-](F)(F)(F)(F)F.[Cl][Ru+].c1ccc2c(c1)Cc1ccccc1C2 [Example 6, [(η^6-C14H12)RuCl(CH3CN)2]^+PF6^−] | 192 | 315 | 2 | 0.9
7 | {[(η^6-C14H14)RuCl]2[H2N(CH2)2NH(CH2)6NH(CH2)2NH2−N,N′N″,N′″]}^2+.2PF6^− [Example 7] | – | 6 | – | –
